These results are taken from ChEMBL document CHEMBL1201862, “PubChem BioAssay data set” (2004).

Active and inactive are the calls of the source.

Test [1] can be described thus: luciferase reporter signal suppression in cells – H4 neuroglioma cells, luminescence, dose response (AID 1990). The format is functional, cell-based.
Test [2] can be described thus: luciferase reporter signal reduction – luminescence, H4-C neuroglioblastoma cells, dose response (AID 2458).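 Also: H4 neuroglioblastoma cells stably carrying a luciferase reporter gene fusion.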 The class given is functional, cell-based. Background: Reporter assays use an easily measured gene product as a stand-in for the process of interest.
A short description of the next test: cells. The format is functional, cell-based.
The nature of test [3]: Luminescence Cell-Based Dose Response HTS to Identify Inhibitors of 5'UTR Stem-Loop Driven Prion Protein mRNA Translation in H4 Neuroglioblastoma Cells. [Related pubchem assays: 1827 (Project Summary), 1813 (Primary HTS)]. The format is functional.
Test [4] can be described thus: alpha-synuclein stem-loop luciferase translation blockers – H4 neuroglioma cells, luminescence, confirmation (AID 1988). The class given is functional, cell-based.
The nature of test [5]: alpha-synuclein stem-loop translation blockers – luminescence, H4 neuroglioblastoma cells, dose confirmation, confirmation (AID 2454).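 Also: H4 neuroglioblastoma cells carrying an alpha-synuclein 5'UTR luciferase reporter; potency for inhibition of the luciferase signal.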 The class given is functional, cell-based.
Test [6] can be described thus: HEK-293T cell viability reduction – luminescence, B-cell screen hits, cytotoxicity control for BCR NF-kB inhibitor project, dose response (AID 489021).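 Also: HEK-293T cells carrying an NF-kB luciferase reporter; cells exposed to compound for about 14 hours before viability readout.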 The format is functional, cell-based.
The nature of test [7]: decrease of insulin promoter-GFP reporter – imaging, high-content screening, mouse beta cells (AID 1628). The class given is functional. The conditions noted are these: MIN6.
Test [8] is described as follows: MIN6 cell viability loss – mouse insulinoma, cytotoxicity control, dose response (AID 2122).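 Also: confirmatory high-throughput counterscreen run to flag cytotoxic compounds.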 The format is functional.
Test [9] is described as follows: Trypanosoma cruzi growth suppression in host cells – NIH3T3 host cells, beta-gal luminescence, confirmation (AID 2044).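 Also: intracellular parasites grown in NIH/3T3 mouse fibroblasts as host cells; luminescent beta-galactosidase reporter signal from transgenic T. cruzi replicating inside host cells; inhibitors lower the luminescence signal.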 The format is functional, cell-based.
Test [10] is described as follows: NIH3T3 cell viability loss – ATP luminescence, mouse fibroblasts, counter-screen, dose response (AID 2010).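 Also: cells exposed to compound for about 90 hours before reading.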 The format is functional, cell-based.
The target of test [11] is T1, Sphingosine 1-phosphate receptor 4 (Homo sapiens, UniProt O95977).
T1 sequence (O95977 whole entry): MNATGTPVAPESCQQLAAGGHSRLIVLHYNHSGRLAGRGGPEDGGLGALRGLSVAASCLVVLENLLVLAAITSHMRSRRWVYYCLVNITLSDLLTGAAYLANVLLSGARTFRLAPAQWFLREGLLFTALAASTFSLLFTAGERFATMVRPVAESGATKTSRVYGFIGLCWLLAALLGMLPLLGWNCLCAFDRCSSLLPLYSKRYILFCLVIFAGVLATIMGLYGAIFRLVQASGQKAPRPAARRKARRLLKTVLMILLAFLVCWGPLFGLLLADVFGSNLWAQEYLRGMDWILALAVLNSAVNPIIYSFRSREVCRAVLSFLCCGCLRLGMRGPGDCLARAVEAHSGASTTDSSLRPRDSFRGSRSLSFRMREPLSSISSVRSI
The test can be described thus: Fluorescence dose response cell-based high throughput screening assay for antagonists of the Sphingosine 1-Phosphate Receptor 4 (S1P4). [Related pubchem assays: 1524 (Confirmation in triplicates.), 1510 (Primary screen.)]. The class given is functional.

In test [12] the target is Sphingosine 1-phosphate receptor 1 (Homo sapiens, UniProt P21453). The format is functional.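 Also: Tango beta-arrestin reporter U2OS cells stimulated with S1P near its EC80; inhibitor potency meaning antagonism of receptor activation by the natural agonist.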
Sphingosine 1-phosphate receptor 1, sequence (P21453 whole entry): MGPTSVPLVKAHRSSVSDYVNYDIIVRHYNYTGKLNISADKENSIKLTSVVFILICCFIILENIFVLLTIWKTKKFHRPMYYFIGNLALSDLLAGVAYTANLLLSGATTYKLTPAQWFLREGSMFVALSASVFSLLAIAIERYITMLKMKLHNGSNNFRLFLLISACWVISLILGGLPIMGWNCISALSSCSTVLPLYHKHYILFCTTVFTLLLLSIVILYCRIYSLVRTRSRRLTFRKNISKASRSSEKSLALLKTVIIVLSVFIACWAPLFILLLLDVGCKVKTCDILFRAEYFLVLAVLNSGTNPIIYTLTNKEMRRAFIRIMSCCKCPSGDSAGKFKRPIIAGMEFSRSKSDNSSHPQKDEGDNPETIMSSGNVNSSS
Test [13] deals with T2, Microphthalmia-associated transcription factor (Homo sapiens, UniProt O75030).
T2 sequence (O75030 whole entry): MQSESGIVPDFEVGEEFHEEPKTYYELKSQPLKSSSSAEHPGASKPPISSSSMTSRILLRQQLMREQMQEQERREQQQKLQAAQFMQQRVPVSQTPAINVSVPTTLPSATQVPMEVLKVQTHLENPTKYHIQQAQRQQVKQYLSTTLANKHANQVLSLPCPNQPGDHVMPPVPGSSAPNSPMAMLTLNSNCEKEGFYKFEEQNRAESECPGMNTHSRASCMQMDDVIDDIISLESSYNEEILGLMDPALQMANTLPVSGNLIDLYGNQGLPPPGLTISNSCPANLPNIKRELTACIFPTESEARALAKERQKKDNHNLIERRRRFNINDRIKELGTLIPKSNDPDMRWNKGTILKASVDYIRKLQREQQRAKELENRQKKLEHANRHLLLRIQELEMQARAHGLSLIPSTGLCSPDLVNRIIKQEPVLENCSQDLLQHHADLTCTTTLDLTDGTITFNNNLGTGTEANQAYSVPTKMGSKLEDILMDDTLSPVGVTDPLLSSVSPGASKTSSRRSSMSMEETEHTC
The test is described as follows: reducers of TRPM1 reporter luminescence, concentration series – cell-based, SK-MEL-5, cherry-picked, set 3, MITF inhibitor project, dose response (AID 493073).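 Also: SK-MEL-5 melanoma cells with luciferase driven by the MITF target TRPM1 promoter.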 The class given is functional.

In test [14] the test system is Vero. The test is described as follows: cells. The conditions noted are these: Chlorocebus sabaeus. The format is functional, cell-based.
Test [15] relates to Vero. The test can be described thus: cells. The format is functional. The conditions noted are these: Chlorocebus sabaeus.
The nature of test [16]: A549 cell cytotoxicity, dose response, cytotoxicity control, plate reader, cherry-pick, antagonist series (AID 743412). The format is functional, cell-based.
A short description of test [17]: toxicity toward HepG2 liver cells – cell-based, plate reader, cherry-pick, antagonist series, cytotoxicity control, dose response (AID 743416). The format is functional.
Test [18] is described as follows: blockers of bursicon-stimulated LGR2 cAMP reporter – cell-based, HEK293, CRE-luciferase reporter, cherry pick, set 2, dose response (AID 743343).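 Also: transfected cells were stimulated with diluted bursicon conditioned medium after compound addition.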 The class given is functional.
A short description of test [19]: blockade of melanocortin 4 receptor signaling – cell-based, plate reader, cherry pick, counter-screen for LGR2 antagonist project, dose response (AID 743444).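 Also: transfected HEK 293 cells stimulated with alpha-MSH peptide; potency of inhibitors of the alpha-MSH evoked signal.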 The format is functional. On the technique in general: The purpose of a counterscreen is to sort out artefacts and off-target activity.
Test [20] in a line: viability loss in HEK293 cells – cell-based, plate reader, cherry-picked samples, cytotoxicity control, dose response (AID 743446). The class given is functional.
Test [21] can be described thus: antiviral protection against BTV-induced cell death – arbovirus, BSR cells, confirmation (AID 1250).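 Also: protection from viral cytopathic effect measured as cell viability by ATP luminescence.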 The class given is functional.
In another test the target is NS3 (Hepatitis C virus, UniProt A3EZJ3). The test can be described thus: PubChem AID 2173. The arrangement: species or system Hepacivirus hominis.
NS3, sequence (A3EZJ3 whole entry): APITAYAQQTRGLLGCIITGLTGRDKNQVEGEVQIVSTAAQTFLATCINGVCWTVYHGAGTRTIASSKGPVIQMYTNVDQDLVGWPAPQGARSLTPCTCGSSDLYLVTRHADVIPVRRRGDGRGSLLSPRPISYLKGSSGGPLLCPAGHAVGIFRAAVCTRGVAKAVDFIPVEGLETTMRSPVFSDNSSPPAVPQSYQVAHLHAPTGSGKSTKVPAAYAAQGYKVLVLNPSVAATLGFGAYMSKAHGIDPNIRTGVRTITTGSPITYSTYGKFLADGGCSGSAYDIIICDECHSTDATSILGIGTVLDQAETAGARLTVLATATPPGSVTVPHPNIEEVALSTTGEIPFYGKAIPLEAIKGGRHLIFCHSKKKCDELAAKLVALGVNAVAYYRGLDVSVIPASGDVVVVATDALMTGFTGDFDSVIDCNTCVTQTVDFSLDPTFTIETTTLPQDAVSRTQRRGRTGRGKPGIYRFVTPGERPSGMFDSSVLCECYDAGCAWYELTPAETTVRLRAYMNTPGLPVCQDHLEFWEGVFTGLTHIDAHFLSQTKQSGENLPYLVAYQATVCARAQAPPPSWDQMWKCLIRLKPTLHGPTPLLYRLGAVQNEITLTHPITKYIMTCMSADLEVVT
Test [22] concerns the target Serine/threonine-protein phosphatase (Homo sapiens, UniProt Q9BPW0). The test is described as follows: Counterscreen for inhibitors of PP1: fluorescence-based biochemical high throughput dose response assay to identify inhibitors of Protein Phosphatase 5 (PP5). [Related pubchem assays: 2034 (Summary (PP5 inhibitors)), 1987 (PP5 inhibitors in singlate), 2235 (PP1 inhibitors in singlate)].

Test [23] in a line: rise of 2N DNA cells, HeLa – IC50, dose response (AID 1117349). The format is functional, cell-based.
Test [24] is described as follows: glucagon-like peptide-1 release potency in STC-1, concentration-response, half-maximal inhibitory concentration in the STC-1 line (AID 1117345). The class given is functional, cell-based.
Test [25] can be described thus: rise of 4N DNA cells, HeLa – IC50, dose response (AID 1117351). The class given is functional, cell-based.
Test [26] can be described thus: Potency on glucagon-like peptide 1 release, dose-response in NCI-H716 cell line, half maximal inhibitory concentration (AID 1117344). The class given is functional, cell-based.
Test [27] addresses Guanyl-specific ribonuclease T1 (Aspergillus oryzae (strain ATCC 42149 / RIB 40), UniProt P00651). The test can be described thus: inhibition of ribonuclease T1 activity – biochemical, fluorescence polarization, 1536-well, counter-screen for TPT1 inhibitor project, dose response (AID 2167).
The target of test [28] is Likely tRNA 2'-phosphotransferase (Candida albicans (strain SC5314 / ATCC MYA-2876) (Yeast), UniProt Q5A7N4). The test is described as follows: inhibition of Candida TPT1 enzyme activity – biochemical, fluorescence polarization, dose response (AID 2160). A general note: Polarisation of emitted light reports the rotation of a fluorescent probe.
Likely tRNA 2'-phosphotransferase, sequence (Q5A7N4 whole entry): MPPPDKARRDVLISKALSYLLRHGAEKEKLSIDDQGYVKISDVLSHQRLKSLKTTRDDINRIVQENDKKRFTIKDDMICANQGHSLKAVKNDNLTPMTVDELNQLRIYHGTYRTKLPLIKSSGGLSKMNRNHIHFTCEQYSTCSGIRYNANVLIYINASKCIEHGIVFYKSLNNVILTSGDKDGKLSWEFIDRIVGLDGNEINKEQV
Test [29] in a line: HEK-293T viability loss after treatment – luminescence, T-cell screen hits, cytotoxicity control for TCR NF-kB inhibitor project, dose response (AID 489026).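 Also: cells exposed to compound about 14 hours before the viability readout.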 The class given is functional, cell-based.
A further test deals with Nonstructural protein 1 (Influenza A virus, UniProt Q194T2). The format is functional, Influenza A virus (A/California/07/2009(H1N1)).
Nonstructural protein 1, sequence (Q194T2 whole entry): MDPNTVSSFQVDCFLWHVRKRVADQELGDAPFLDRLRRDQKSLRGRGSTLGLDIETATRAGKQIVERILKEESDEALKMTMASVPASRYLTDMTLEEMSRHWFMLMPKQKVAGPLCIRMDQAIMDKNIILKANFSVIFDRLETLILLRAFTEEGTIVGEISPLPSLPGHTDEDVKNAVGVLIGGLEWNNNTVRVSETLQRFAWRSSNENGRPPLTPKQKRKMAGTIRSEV
The next test deals with INS1. The test can be described thus: INS-1E survival protection against cytokine death – cell-based, luminescence, retest, dose response (AID 449756).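 Also: cell death triggered by IL-1 beta plus TNF-alpha plus IFN-gamma mixture; protective hits raise ATP signal compared with cytokine alone wells.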 The format is functional. The conditions noted are these: Rattus norvegicus.
Test [30] concerns the target G2/mitotic-specific cyclin-B1 (Homo sapiens, UniProt P14635). The test is described as follows: Counterscreen assay for inhibitors of Wee1 degradation: dose response cell-based assay to identify inhibitors of cyclin B degradation. [Related pubchem assays: 1410, 1321 ]. The format is functional.
The target of the next test is Wee1-like protein kinase (Homo sapiens, UniProt P30291). The test is described as follows: Dose Response Cell-based Assay for Inhibitors of Wee1 Degradation. [Related pubchem assays: 1410, 1321 ]. The format is functional.
Wee1-like protein kinase, sequence (P30291 whole entry): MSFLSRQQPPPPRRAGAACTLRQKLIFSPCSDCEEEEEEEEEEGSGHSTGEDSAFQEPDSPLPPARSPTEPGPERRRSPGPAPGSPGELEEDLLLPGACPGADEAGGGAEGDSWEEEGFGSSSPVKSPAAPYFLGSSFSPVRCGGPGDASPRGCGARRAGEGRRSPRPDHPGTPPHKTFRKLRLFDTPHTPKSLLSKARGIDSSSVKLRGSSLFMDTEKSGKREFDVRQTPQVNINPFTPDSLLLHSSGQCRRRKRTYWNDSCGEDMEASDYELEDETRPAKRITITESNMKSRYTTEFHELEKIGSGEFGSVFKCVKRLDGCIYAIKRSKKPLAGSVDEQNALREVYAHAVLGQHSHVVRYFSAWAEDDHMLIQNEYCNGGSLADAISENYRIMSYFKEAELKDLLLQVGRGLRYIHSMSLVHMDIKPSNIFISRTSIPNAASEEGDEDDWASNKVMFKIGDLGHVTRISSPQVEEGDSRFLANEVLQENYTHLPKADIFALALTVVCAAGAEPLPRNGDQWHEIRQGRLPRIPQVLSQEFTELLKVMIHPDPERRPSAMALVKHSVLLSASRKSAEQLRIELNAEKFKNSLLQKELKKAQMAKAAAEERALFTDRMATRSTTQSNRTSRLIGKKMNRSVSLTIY

Serine/threonine-protein phosphatase, sequence (Q9BPW0 whole entry): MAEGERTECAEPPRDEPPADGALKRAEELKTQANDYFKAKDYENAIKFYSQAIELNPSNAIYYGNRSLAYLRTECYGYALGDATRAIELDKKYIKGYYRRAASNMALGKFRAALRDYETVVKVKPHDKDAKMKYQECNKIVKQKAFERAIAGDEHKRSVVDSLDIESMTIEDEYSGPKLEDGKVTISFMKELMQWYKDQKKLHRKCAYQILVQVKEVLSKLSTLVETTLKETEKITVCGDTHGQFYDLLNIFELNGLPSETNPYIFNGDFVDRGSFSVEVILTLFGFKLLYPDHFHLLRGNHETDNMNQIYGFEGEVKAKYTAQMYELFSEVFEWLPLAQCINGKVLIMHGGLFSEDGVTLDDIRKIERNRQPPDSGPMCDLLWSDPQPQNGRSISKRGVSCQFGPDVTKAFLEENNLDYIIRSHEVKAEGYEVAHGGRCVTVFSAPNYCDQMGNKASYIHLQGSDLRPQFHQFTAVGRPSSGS
Guanyl-specific ribonuclease T1, sequence (P00651 whole entry): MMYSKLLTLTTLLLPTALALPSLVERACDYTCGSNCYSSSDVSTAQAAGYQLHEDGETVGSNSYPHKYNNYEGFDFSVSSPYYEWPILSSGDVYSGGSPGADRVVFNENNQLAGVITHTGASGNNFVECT
G2/mitotic-specific cyclin-B1, sequence (P14635 whole entry): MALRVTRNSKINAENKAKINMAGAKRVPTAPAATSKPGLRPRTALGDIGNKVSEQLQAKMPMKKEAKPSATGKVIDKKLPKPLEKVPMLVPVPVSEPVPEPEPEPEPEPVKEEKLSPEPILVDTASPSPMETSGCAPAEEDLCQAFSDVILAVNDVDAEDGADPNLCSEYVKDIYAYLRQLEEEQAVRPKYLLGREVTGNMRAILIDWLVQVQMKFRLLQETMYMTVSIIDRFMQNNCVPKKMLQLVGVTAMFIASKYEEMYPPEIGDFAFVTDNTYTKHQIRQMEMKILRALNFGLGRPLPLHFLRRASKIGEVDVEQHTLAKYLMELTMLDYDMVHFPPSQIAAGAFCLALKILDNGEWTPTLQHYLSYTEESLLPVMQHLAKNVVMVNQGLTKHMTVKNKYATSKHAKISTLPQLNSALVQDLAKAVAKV

Usually EC50 stands for the concentration needed to bring the measured effect to its halfway point. The term IC50 denotes the midpoint of a concentration-inhibition curve. As to `Nc1ccc(-c2cc3ccccc3oc2=O)cc1`, the EC50 in [1] was < 0.1 µM (active); in test [2] it was 0.125 µM (active); in “cells”, 0.215 µM (active); in test [3], < 0.1 µM (active); in test [4] it was < 0.1 µM (active); in [5], 0.156 µM (active). Also, the IC50 in test [6] is > 80 µM (inactive).

For orientation: AC50 means the midpoint of the concentration-response curve, whichever way the signal moves. As usually defined, the CC50 is the concentration at which the toxic effect on the cells reaches its halfway point. Turning to `O=C(Cn1ncc(Cl)c(Cl)c1=O)N1CCN(Cc2ccccc2)CC1`, the IC50 in test [7] was 3.08 µM (active); in test [8], 2.16 µM (active); in test [11] it was 3.5 µM (active); in test [12] it was 9.93 µM (active); in the test on Vero [14], > 25 µM (active). Besides, the figures for the EC50 in test [9] and in test [10] were 2.22 µM (active) and 2.06 µM (active), respectively. Besides, the half-maximal activity concentration (AC50) in test [13] was 10.9 µM (active); in test [16], 11.1 µM (active); in [17], 17.8 µM (active); in [18] it was 31.5 µM (active); in [19], 34.1 µM (active); in test [20], 7.54 µM (active). In addition, the cytotoxic concentration (CC50) with Vero [15] is 11.3 µM (active).

Consider `O=C(Nc1nnc(SCc2ccc(Cl)cc2Cl)s1)C1COc2ccccc2O1` (stereo not drawn), for which the concentration for half-maximal inhibition (IC50) in test [21] was 49 µM (active).

For `COc1ccc(C2C(C(=O)c3ccc4c(c3)OCCO4)=C(O)C(=O)N2c2nc(C)c(C(C)=O)s2)cc1` (stereo not drawn), the IC50 on NS3 was 5.13 µM (active).

`C[C@@]12C(=O)OC(=O)[C@]1(C)C1CCC2O1`: the concentration for half-maximal inhibition (IC50) is 0.239 µM (active) in [22]; > 10 µM (inactive) in test [23]; 13.7 µM (inactive) in test [24]; > 10 µM (inactive) in [25]; 6.68 µM (inactive) in test [26].

In the case of `Cn1cc(C(=O)N/N=C/c2c(O)ccc3ccccc23)ccc1=O`, the IC50 in test [7] was 4.33 µM (active); in [27], > 55.7 µM (not active); in test [8] it was 4.04 µM (active); in test [28] it was > 55.7 µM (not active); in test [29], > 80 µM (inactive); at Nonstructural protein 1 it was > 100 µM (active). Moreover, the AC50 is 2.55 µM (active) in [13] and 0.774 µM (active) in the test with INS1.

On to `CCN(CC)c1ccc(/C=N/NC(=O)c2cnccn2)cc1`, for which the EC50 (in test [30]; at Wee1-like protein kinase) was > 49.7 µM (not active) each time.
